Data as given in patent US6943191B1, “Disubstituted lavendustin A analogs and pharmaceutical composition comprising the analogs” (The United States of America as represented by the …, priority 1998, dated 2005).

Tested on: UACC-62
Assay: Hollow fiber assay in mice, UACC-62
Format: in vivo, human
Details: QD X 4, Day 4; for % T/C UACC-62 IP: IP fibers; for % T/C UACC-62 SC: SC fibers
Protocol: Compounds satisfying Formulas 1 and 2 also have been tested for in vivo activity in the hollow fiber assay. See Example 12 below for the procedure used for the in vivo tests. Each compound tested was tested against a minimum of 12 human cancer cell lines. Data is reported as % T/C (i.e., the […]) for each of the 2 compound doses against each of the cell lines with separate values calculated for the intraperitoneal and subcutaneous samples, with a target value for % T/C being about 50 or less.
Compounds were selected for further in vivo testing in standard subcutaneous xenograft models on the basis of several hollow fiber assay criteria. These criteria include: (1) a % T/C of 50 or less in 10 of the 48 possible test combinations (12 cell lines×2 sites×2 compound doses); (2) activity at a distance (intrapentoneal drug/subcutaneous culture) in a minimum of 4 of the 24 possible combinations; and/or (3) a net cell kill of 1 or more cell lines in either implant site. To simplify evaluation, a point system has been adopted which allows rapid assessment of a compound's activity. A value of 2 is assigned for each compound dose which results in a 50% or greater reduction in viable cell mass. The intraperitoneal and subcutaneous samples were scored separately so that criteria (1) and (2) could be evaluated. Compounds with a combined IP+SC score≧20, an SC score≧8, or a net cell kill of one or more cell lines were referred for xenograft testing. These criteria have been statistically validated by comparing the activity outcomes of greater than 80 randomly selected compounds in the hollow fiber assay and in the xenograft testing.
This example describes the method used for in vivo testing of mice. Human cancer cells were cultivated in polyvinylidene fluoride (PVDF) hollow fibers. A sample of each cancer cell line was implanted intraperitoneally and subcutaneously in mice. Each mouse received a total of 6 fibers, 3 intraperitoneally and 3 subcutaneously, representing 3 distinct cancer cell lines. Three mice were treated with compounds made according to the present invention at each of two test doses intraperitoneally using a QD×4 treatment schedule. […] Anticancer effects were assessed by determining viable cell mass for each of the coil line using a formazan dye (MTT) conversion assay. From this, the % TIC was calculated using the average optical density of the compound-treated samples divided by the average optical density of the vehicle controls. In addition, the net increase in cell mass was determined for each sample as samples of fiber cultures were assessed for viable cell mass on the day of implantation into mice. This allowed cytostatic and cytocidal capacities of these compounds to be assessed.

O=C(OC12CC3CC(CC(C3)C1)C2)c1ccc(NCc2cc(O)ccc2O)cc1 [Compound 6, 4′-adamantylbenzoate-1′-N-2,5-dihydroxybenzylamine]
% T/C UACC-62 IP (33.50 mg/kg/dose IP): >100%
% T/C UACC-62 IP (50.00 mg/kg/dose IP): >100%
% T/C UACC-62 SC (33.50 mg/kg/dose IP): 99%
% T/C UACC-62 SC (50.00 mg/kg/dose IP): 99%
